Reference: US20230265151A1, “GIP/GLP1 CO-AGONIST COMPOUNDS” (priority 2020, published 2023)
pKi: −log10 of the molar value. Read-outs that look alike come from different tables or passages of the source.

Columns and labels:
hGLP-1R = hGLP-1R (Homo sapiens, UniProt P43220); test: Functional cAMP formation (HTRF) in HEK-293 clonal cells expressing hGLP-1R, 0.1% bovine casein, without or with 1.0% human serum albumin; assay type: cell-based; set-up: expressed in transfected cells; conditions: for Emax: percent of maximal response to GLP-1(7-36)NH2; for EC50: cAMP
Summary of the method: (§1)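 Cells were stimulated with peptide for 30 min at 37° C, then lysed in buffer carrying cAMP-d2 and anti-cAMP Eu3+-cryptate for a competitive HTRF read after at least 60 min at room temperature. The 665/620 nm ratio was converted to nM cAMP against a standard curve.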

hGIPR = biological target: T1, hGIPR (Homo sapiens, UniProt P48546); test: Functional cAMP formation (HTRF) in HEK-293 clonal cells expressing hGIPR, 0.1% bovine casein, without or with 1.0% human serum albumin; assay type: cell-based; conditions: for Emax: percent of maximal response to GIP(1-42)NH2; for EC50: cAMP
T1 construct: expressed in transfected cells
T1 sequence (P48546 22-466): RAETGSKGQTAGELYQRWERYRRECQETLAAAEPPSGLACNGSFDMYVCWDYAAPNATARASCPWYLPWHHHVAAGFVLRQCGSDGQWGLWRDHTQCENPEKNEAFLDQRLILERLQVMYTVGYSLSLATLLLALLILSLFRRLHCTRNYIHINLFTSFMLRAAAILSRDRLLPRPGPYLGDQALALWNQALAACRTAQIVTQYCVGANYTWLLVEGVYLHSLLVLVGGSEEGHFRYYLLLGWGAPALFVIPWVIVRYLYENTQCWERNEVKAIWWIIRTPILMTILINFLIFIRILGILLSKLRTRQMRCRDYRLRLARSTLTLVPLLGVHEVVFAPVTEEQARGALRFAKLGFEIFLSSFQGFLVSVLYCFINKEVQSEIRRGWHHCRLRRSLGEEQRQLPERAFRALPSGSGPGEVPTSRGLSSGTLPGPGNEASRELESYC
Summary of the method: as §1

hGCGR = biological target: T2, hGCGR (Homo sapiens, UniProt P47871); test: Functional cAMP formation (HTRF) in HEK-293 clonal cells expressing hGCGR, 0.1% bovine casein, without or with 1.0% human serum albumin; assay type: cell-based; conditions: cAMP, 37° C.
T2 construct: expressed in transfected cells
Summary of the method: as §1

[1] = biological target: T3, human GIP receptor (hGIPR) (Homo sapiens, UniProt P48546); test: [125I]-GIP binding, SPA with membranes of CHO cells expressing hGIPR; conditions: for Ki: human GIPR, geometric mean (SEM, n), read-out: Binding Affinity Ki, nM (SEM, n) hGIPR
T3 construct: expressed in transfected cells; crude membranes
T3 sequence (P48546 22-466): T1 sequence (P48546 22-466)

[2] = 37° C., 0.1% bovine casein (no human serum albumin), geometric mean, read-out: hGLP-1R EC50, nM (SEM, n)
[3] = HEK293, cAMP, 37° C., 0.1% bovine casein, arithmetic mean, read-out: hGIPR Emax, % ± SEM
[4] = 37° C., 0.1% bovine casein (no human serum albumin), geometric mean, read-out: hGIPR EC50, nM (SEM, n)
[5] = 0.1% bovine casein (no human serum albumin), geometric mean, read-out: hGCGR EC50, nM (SEM, n)
[6] = 0.1% bovine casein and 1.0% human serum albumin, geometric mean (SEM, n), read-out: hGCGR EC50, nM (SEM, n)
[7] = hGLP-1R EC50, nM (SEM, n), 37° C., 0.1% bovine casein (no human serum albumin), geometric mean
[8] = HEK293, read-out: hGIPR Emax, % ± SEM, cAMP, 37° C., 0.1% bovine casein and 1.0% human serum albumin
[9] = hGIPR EC50, nM (SEM, n), 37° C., 0.1% bovine casein (no human serum albumin), geometric mean
[10] = hGCGR EC50, nM (SEM, n), 0.1% bovine casein (no human serum albumin), geometric mean
[11] = hGCGR EC50, nM (SEM, n), 0.1% bovine casein and 1.0% human serum albumin, geometric mean (SEM, n)

Chain of hGLP-1R (P43220 24-463): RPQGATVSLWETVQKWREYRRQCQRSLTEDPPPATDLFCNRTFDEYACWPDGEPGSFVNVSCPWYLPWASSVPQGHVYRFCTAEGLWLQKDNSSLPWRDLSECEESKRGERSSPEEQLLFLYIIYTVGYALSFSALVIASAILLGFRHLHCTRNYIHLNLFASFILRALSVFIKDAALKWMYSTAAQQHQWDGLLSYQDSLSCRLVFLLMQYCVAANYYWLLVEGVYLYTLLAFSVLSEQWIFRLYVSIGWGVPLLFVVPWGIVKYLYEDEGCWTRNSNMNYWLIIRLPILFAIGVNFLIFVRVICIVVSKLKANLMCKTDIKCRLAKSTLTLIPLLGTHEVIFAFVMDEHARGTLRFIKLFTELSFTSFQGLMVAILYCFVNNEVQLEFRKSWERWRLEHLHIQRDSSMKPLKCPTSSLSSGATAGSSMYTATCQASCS
T2 sequence (P47871 26-477): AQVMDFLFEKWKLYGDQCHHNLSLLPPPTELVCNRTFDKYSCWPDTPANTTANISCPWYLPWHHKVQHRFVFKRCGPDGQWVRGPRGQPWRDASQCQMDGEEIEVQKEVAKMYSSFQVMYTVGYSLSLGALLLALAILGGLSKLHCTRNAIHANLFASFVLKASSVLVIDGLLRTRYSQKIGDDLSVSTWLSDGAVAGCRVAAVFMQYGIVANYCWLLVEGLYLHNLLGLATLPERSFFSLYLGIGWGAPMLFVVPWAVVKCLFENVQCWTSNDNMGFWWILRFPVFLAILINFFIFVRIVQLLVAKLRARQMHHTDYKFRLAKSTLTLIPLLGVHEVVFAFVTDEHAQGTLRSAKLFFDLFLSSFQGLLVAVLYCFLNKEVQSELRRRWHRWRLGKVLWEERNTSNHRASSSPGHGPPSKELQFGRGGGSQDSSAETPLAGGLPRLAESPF

CCCCCCCCCCCC(=O)N[C@@H](CCC(=O)NCCOCCOCC(=O)NCCOCCOCC(=O)NCCOCCOCC(=O)NCCCC[C@H](NC(=O)[C@H](CCCN)NC(=O)[C@H](CC(=O)O)NC(=O)[C@H](CC(C)C)NC(=O)[C@](C)(CC(C)C)NC(=O)[C@@H](NC(=O)C(C)(C)NC(=O)[C@H](CCCCNC(=O)COCCOCCNC(=O)COCCOCCNC(=O)COCCOCCNC(=O)CC[C@H](NC(=O)CCCCCCCCCCC)C(=O)O)NC(=O)[C@H](CC(=O)O)NC(=O)[C@H](CO)NC(=O)[C@@H](NC(=O)[C@](C)(Cc1ccccc1F)NC(=O)[C@@H](NC(=O)CNC(=O)[C@H](CCC(=O)O)NC(=O)C(C)(C)NC(=O)[C@@H](N)Cc1ccc(O)cc1)[C@@H](C)O)[C@@H](C)O)[C@@H](C)CC)C(=O)N[C@@H](C)C(=O)N[C@@H](CCC(N)=O)C(=O)NC(C)(C)C(=O)N[C@@H](CCC(=O)O)C(=O)N[C@@H](Cc1ccccc1)C(=O)N[C@H](C(=O)N[C@H](CCC(=O)O)C(=O)N[C@@](C)(Cc1ccc(O)cc1)C(=O)N[C@@H](CC(C)C)C(=O)N[C@H](C(=O)N[C@@H](CCC(=O)O)C(=O)NCC(=O)NCC(=O)N1CCC[C@H]1C(=O)N[C@@H](CO)C(=O)N[C@@H](CO)C(=O)NCC(=O)N[C@@H](C)C(=O)N1CCC[C@H]1C(=O)N1CCC[C@H]1C(=O)N1CCC[C@H]1C(=O)N[C@@H](CO)C(N)=O)[C@@H](C)CC)[C@@H](C)CC)C(=O)O [Example 421]
Emax (hGLP-1R; HEK293, cAMP, 37° C., 0.1% bovine casein and 1.0% human serum albumin, read-out: hGLP-1R Emax, % ± SEM): 105% | EC50 (hGLP-1R; [2]): 0.057 nM | Emax (hGIPR; HEK293, cAMP, 37° C., 0.1% bovine casein and 1.0% human serum albumin, read-out: hGIPR Emax, % ± SEM): 98% | Emax (hGIPR; [3]): 100% | EC50 (hGIPR; [4]): 0.00618 nM | EC50 (hGCGR; [5]): > 9950 nM | EC50 (hGCGR; [6]): > 9950 nM | Ki [1]: 0.0245 nM

CC[C@H](C)[C@H](NC(=O)[C@H](CC(C)C)NC(=O)[C@](C)(Cc1ccc(O)cc1)NC(=O)[C@H](CCCCNC(=O)COCCOCCNC(=O)COCCOCCNC(=O)CC[C@H](NC(=O)CCCCCCCCCOc1ccc(C(=O)O)cc1)C(=O)O)NC(=O)[C@@H](NC(=O)[C@H](Cc1ccccc1)NC(=O)[C@H](CCCN)NC(=O)C(C)(C)NC(=O)[C@H](CCC(N)=O)NC(=O)[C@H](C)NC(=O)[C@H](CCC(N)=O)NC(=O)[C@H](CCCN)NC(=O)[C@H](CC(=O)O)NC(=O)[C@H](CC(C)C)NC(=O)[C@](C)(CC(C)C)NC(=O)[C@@H](NC(=O)C(C)(C)NC(=O)[C@H](Cc1ccncc1)NC(=O)[C@H](CC(=O)O)NC(=O)[C@H](CO)NC(=O)[C@@H](NC(=O)[C@](C)(Cc1ccccc1F)NC(=O)[C@@H](NC(=O)CNC(=O)[C@H](CCC(=O)O)NC(=O)C(C)(C)NC(=O)[C@@H](N)Cc1ccc(O)cc1)[C@@H](C)O)[C@@H](C)O)[C@@H](C)CC)[C@@H](C)CC)C(=O)N[C@@H](CCCCNC(=O)COCCOCCNC(=O)COCCOCCNC(=O)CC[C@H](NC(=O)CCCCCCCCCOc1ccc(C(=O)O)cc1)C(=O)O)C(=O)NCC(=O)NCC(=O)N1CCC[C@H]1C(=O)N[C@@H](CO)C(=O)N[C@@H](CO)C(=O)NCC(=O)N[C@@H](C)C(=O)N1CCC[C@H]1C(=O)N1CCC[C@H]1C(=O)N1CCC[C@H]1C(=O)N[C@@H](CO)C(N)=O [Example 440]
EC50 (hGLP-1R; [7]): 0.18 nM | EC50 (hGLP-1R; hGLP-1R EC50, nM (SEM, n), 37° C., 0.1% bovine casein and 1.0% human serum albumin, geometric mean (SEM, n)): 2.74 nM | Emax (hGIPR; [8]): 90.3% | EC50 (hGIPR; [9]): 0.0104 nM | EC50 (hGCGR; [10]): > 10100 nM | EC50 (hGCGR; [11]): > 10100 nM | pKi [1]: 10.51

CC[C@H](C)[C@H](NC(=O)[C@H](CC(C)C)NC(=O)[C@](C)(Cc1ccc(O)cc1)NC(=O)[C@H](CCCCNC(=O)COCCOCCNC(=O)COCCOCCNC(=O)CC[C@H](NC(=O)CCCCCCCCCCCCC(=O)O)C(=O)O)NC(=O)[C@@H](NC(=O)[C@H](Cc1ccccc1)NC(=O)[C@H](CCCN)NC(=O)C(C)(C)NC(=O)[C@H](CCC(N)=O)NC(=O)[C@H](C)NC(=O)[C@H](CCC(N)=O)NC(=O)[C@H](CCCN)NC(=O)[C@H](CC(=O)O)NC(=O)[C@H](CC(C)C)NC(=O)[C@](C)(CC(C)C)NC(=O)[C@@H](NC(=O)C(C)(C)NC(=O)[C@@H](NC(=O)[C@H](CC(=O)O)NC(=O)[C@H](CO)NC(=O)[C@@H](NC(=O)[C@](C)(Cc1ccccc1F)NC(=O)[C@@H](NC(=O)CNC(=O)[C@H](CCC(=O)O)NC(=O)C(C)(C)NC(=O)[C@@H](N)Cc1ccc(O)cc1)[C@@H](C)O)[C@@H](C)O)C(C)C)[C@@H](C)CC)[C@@H](C)CC)C(=O)N[C@@H](CCCCNC(=O)COCCOCCNC(=O)COCCOCCNC(=O)CC[C@H](NC(=O)CCCCCCCCCCCCC(=O)O)C(=O)O)C(=O)NCC(=O)NCC(=O)N1CCC[C@H]1C(=O)N[C@@H](CO)C(=O)N[C@@H](CO)C(=O)NCC(=O)N[C@@H](C)C(=O)N1CCC[C@H]1C(=O)N1CCC[C@H]1C(=O)N1CCC[C@H]1C(=O)N[C@@H](CO)C(N)=O [Example 448]
EC50 (hGLP-1R; [2]): 0.157 nM | Emax (hGIPR; [3]): 105% | EC50 (hGIPR; [4]): 0.0164 nM | EC50 (hGIPR; 37° C., 0.1% bovine casein and 1.0% human serum albumin, geometric mean (SEM, n), read-out: hGIPR EC50, nM (SEM, n)): 1.41 nM | EC50 (hGCGR; [5]): > 9950 nM | EC50 (hGCGR; [6]): > 9950 nM | Ki [1]: 0.0314 nM

CC[C@H](C)[C@H](NC(=O)[C@H](CC(C)C)NC(=O)[C@](C)(Cc1ccc(O)cc1)NC(=O)[C@H](CCCCNC(=O)CCCCCNC(=O)COCCOCCNC(=O)CC[C@H](NC(=O)CCCCCCCCCOc1ccc(C(=O)O)cc1)C(=O)O)NC(=O)[C@@H](NC(=O)[C@H](Cc1ccccc1)NC(=O)[C@H](CCCN)NC(=O)C(C)(C)NC(=O)[C@H](CCC(N)=O)NC(=O)[C@H](C)NC(=O)[C@H](CCC(N)=O)NC(=O)[C@H](CCCN)NC(=O)[C@H](CC(=O)O)NC(=O)[C@H](CC(C)C)NC(=O)[C@](C)(CC(C)C)NC(=O)[C@@H](NC(=O)C(C)(C)NC(=O)[C@H](Cc1ccncc1)NC(=O)[C@H](CC(=O)O)NC(=O)[C@H](CO)NC(=O)[C@@H](NC(=O)[C@](C)(Cc1ccccc1F)NC(=O)[C@@H](NC(=O)CNC(=O)[C@H](CCC(=O)O)NC(=O)C(C)(C)NC(=O)[C@@H](N)Cc1ccc(O)cc1)[C@@H](C)O)[C@@H](C)O)[C@@H](C)CC)[C@@H](C)CC)C(=O)N[C@@H](CCCCNC(=O)CCCCCNC(=O)COCCOCCNC(=O)CC[C@H](NC(=O)CCCCCCCCCOc1ccc(C(=O)O)cc1)C(=O)O)C(=O)NCC(=O)NCC(=O)N1CCC[C@H]1C(=O)N[C@@H](CO)C(=O)N[C@@H](CO)C(=O)NCC(=O)N[C@@H](C)C(=O)N1CCC[C@H]1C(=O)N1CCC[C@H]1C(=O)N1CCC[C@H]1C(=O)N[C@@H](CO)C(N)=O [Example 455]
Emax (hGLP-1R; HEK293, read-out: hGLP-1R Emax, % ± SEM, cAMP, 37° C., 0.1% bovine casein, arithmetic mean): 117% | EC50 (hGLP-1R; [7]): 0.219 nM | Emax (hGIPR; [8]): 91.8% | EC50 (hGIPR; [9]): 0.0146 nM | EC50 (hGCGR; [10]): > 9950 nM | EC50 (hGCGR; [11]): > 9950 nM | pKi [1]: 10.84
